# Measurements from patent US11420966B2 (ACLARIS THERAPEUTICS, INC., priority 2019, dated 2022).
# Columns and labels:
# [1] = target: Tyk-2 (Homo sapiens (Human), UniProt P29597); assay: Tyk-2 enzyme activity assay (Thermo Fisher SelectScreen, Z-lyte); format: biochemical; settings: read-out: Tyk-2 Inhibition IC50
# Description: (§1) JAK1, JAK2, JAK3, and Tyk-2 Enzyme Activity Assays
# (§2) The inhibitory potency of candidate compounds of JAK1, JAK2, and Tyk-2 was done at Thermo Fisher Scientific in their Selectscreen using a Z-lyte assay. Following are the assay details for each enzyme.
# TYK2: The 2×TYK2/Tyr 03 mixture is prepared in 50 mM HEPES pH 6.5, 0.01% BRIJ-35, 10 mM MgCl2, 1 mM EGTA, 0.02% NaN3. The final 10 μL Kinase Reaction consists of 3.75-15 ng TYK2 and 2 M Tyr 03 in 50 mM HEPES pH 7.0, 0.01% BRIJ-35, 10 mM MgCl2, 1 mM EGTA, 0.01% NaN3. After the one hour KinaseReaction incubation, 5 μL of a 1:4096 dilution of Development Reagent A is added.
# (§3) Data reduction for JAK1, JAK2 and TYK2 is done the same, independent of the enzyme run. In summary, background signal is defined in the absence of enzyme and uninhibited signal is defined in the presence of vehicle (2% DMSO) alone. Compounds were evaluated in an 11 point dose-response ranging from […] to 0.34 nM. IC50 values of compounds are determined using a 4 parameter logistical fit of emission ratio as a function of the concentration of compound.
# [2] = tested on: IL-2 stimulated STAT5 phosphorylation on Tyr694 (JAK1/3); assay: JAK1/3 cellular target modulation: IL-2 stimulated phospho-STAT5 in PBMC; format: cell-based; settings: human PBMC, IL-2 25 ng/ml; read-out: IL2-STAT5 IC50
# Description: (§4) JAK Cellular Target Modulation Assays
# (§5) Target modulation was based upon the ability of a compound to inhibit JAK isoform specific phosphorylation of selected substrates. IL-2 stimulated STAT5 phosphorylation on Tyr694 was used to assess JAK1/3 compound selectivity. GM-CSF stimulated STAT5 phosphorylation on Tyr694 was used to assess JAK2 compound selectivity. IFNγ stimulated STAT1 phosphorylation on Tyr701 was used to assess JAK1/2 compound selectivity. IL-12 stimulated STAT4 phosphorylation on Tyr693 was used to assess JAK2/TYK2 compound selectivity. For all four assays, human PBMC from frozen stocks were thawed, pelleted, resuspended in complete media (90% RPMI, 10% heat inactivated FBS, 10 mM HEPES, 47 μM 2-ME, pen/strep) and placed in wells of a 96 well V-bottom plate at 200,000 per well in 120 μl complete media. Compounds were added as 15 μl per well of 10× working stock solutions in complete media with 1% DMSO (or medium with 1% DMSO for controls) and placed on a plate shaker in a 37° C. incubator with 5% CO2 for 1 hour with gentle shaking (setting of 3). Stimulation used the addition of soluble cytokines. For the JAK1/3 phospho-STAT5 assay, 15 μl of 10× working stock recombinant human IL-2 was added to a final concentration of 25 ng/ml. For the JAK2 phospho-STAT5 assay, 15 μl of 10× working stock recombinant human GM-CSF was added to a final concentration of 5 ng/ml. For the JAK1/2 phospho-STAT1 assay, 15 μl of 10× working stock of recombinant human IFNγ was added to a final concentration of 10 ng/ml. For the JAK2/TYK2 phospho-STAT4 assay, 15 μl of 10× working stock of recombinant human IL-12 was added to a final concentration of 1.7 ng/ml. Plates were then placed back on the plate shaker in the incubator for an additional 5, 5, 10, and 25 minutes respectively upon which the plates were removed from the incubator, sealed with a plate sealer and the cells pelleted at 400×g for 5 minutes. After pelleting, the media was removed by aspiration and the cells were lysed in assay specific cell lysis buffer. The levels of phospho-STATS were determined using a Phospho (Tyr694) STAT5a,b Whole Cell Lysate kit from Meso Scale Discovery. Levels of phospho-STAT1 were determined using a CST-PathScan Phospho-STAT1 (Tyr701) Sandwich ELISA kit. Levels of phospho-STAT4 were determined using a Phospho-STAT4 (Tyr693) Whole Cell Lysate kit from Meso Scale Discovery.
# [3] = target: JAK3 (a.a. 781-1124) (Homo sapiens (Human), UniProt P52333); assay: JAK3 enzyme activity assay (SRCtide phosphorylation, Caliper); format: biochemical; settings: 1 uM ATP; read-out: JAK3 Inhibition IC50
# Description: as §1
# Kinase reactions were run in a 384-well Greiner plate with 2% final DMSO concentration under the buffer conditions of 20 mM HEPES, pH 7.5, 10 mM MgCl2, 0.01% BSA, and 0.0005% Tween-20. The kinase reaction components were 2.5 nM JAK3, 1 μM SRCtide peptide and 1 uM ATP. Examples were tested in dose-response starting at 2 M (11 concentrations, 3-fold serial dilution, duplicate reactions). The reactions were incubated at room temperature for 40 minutes, then stopped by adding a 1:1 volume of 30 mM EDTA in 20 mM HEPES, pH 7.5 (15 mM EDTA final). After the reaction was stopped, the phosphorylated and unphosphorylated peptides were separated and quantified using a Caliper LC3000/EZ-Reader system and HTS Well Analyzer Software (Caliper, A PerkinElmer Company, Hopkinton, Mass.). GraFit (Erithacus Software Ltd., Horley, U.K.) was used to calculate inhibitor potency by fitting dose-response data to the 4-parameter logistical IC50 equation.
# [4] = target: JAK1 (Homo sapiens (Human), UniProt P23458); assay: JAK1 enzyme activity assay (Thermo Fisher SelectScreen, Z-lyte); format: biochemical; settings: read-out: JAK1 Inhibition IC50
# Description: as §1, §2
# JAK: The 2×JAK-enzyme/Tyr 06 mixture is prepared in 50 mM HEPES pH 6.5, 0.01% BRIJ-35, 10 mM MgCl2, 1 mM EGTA, 0.02% NaN3. The final 10 μL of the Kinase Reaction consists of 21.2-91.5 ng JAK and 2 M Tyr 06 in 50 mM HEPES pH 7.0, 0.01% BRIJ-35, 10 mM MgCl2, 1 mM EGTA, 0.01% NaN3. After the one hour Kinase Reaction incubation, 5 μL of a 1:128 dilution of Development Reagent is added.
# as §3
# [5] = target: JAK2 (Homo sapiens (Human), UniProt O60674); assay: JAK2 enzyme activity assay (Thermo Fisher SelectScreen, Z-lyte); format: biochemical; settings: read-out: JAK2 Inhibition IC50
# Description: as §1, §2
# JAK2: The 2×JAK2/Tyr 06 mixture is prepared in 50 mM HEPES pH 7.5, 0.01% BRIJ-35, 10 mM MgCl2, 1 mM EGTA. The final 10 μL Kinase Reaction consists of 0.12-0.5 ng JAK2 and 2 M Tyr 06 in 50 mM HEPES pH 7.5, 0.01% BRIJ-35, 10 mM MgCl2, 1 mM EGTA. After the one hour Kinase Reaction incubation, 5 μL of a 1:128 dilution of Development Reagent A is added.
# as §3
# [6] = tested on: IFNγ stimulated STAT1 phosphorylation on Tyr701 (JAK1/2); assay: JAK1/2 cellular target modulation: IFNγ stimulated phospho-STAT1 in PBMC; format: cell-based; settings: human PBMC, IFNγ 10 ng/ml; read-out: Infγ-STAT1 IC50
# Description: as §4, §5
# JAK1, sequence (P23458 whole entry): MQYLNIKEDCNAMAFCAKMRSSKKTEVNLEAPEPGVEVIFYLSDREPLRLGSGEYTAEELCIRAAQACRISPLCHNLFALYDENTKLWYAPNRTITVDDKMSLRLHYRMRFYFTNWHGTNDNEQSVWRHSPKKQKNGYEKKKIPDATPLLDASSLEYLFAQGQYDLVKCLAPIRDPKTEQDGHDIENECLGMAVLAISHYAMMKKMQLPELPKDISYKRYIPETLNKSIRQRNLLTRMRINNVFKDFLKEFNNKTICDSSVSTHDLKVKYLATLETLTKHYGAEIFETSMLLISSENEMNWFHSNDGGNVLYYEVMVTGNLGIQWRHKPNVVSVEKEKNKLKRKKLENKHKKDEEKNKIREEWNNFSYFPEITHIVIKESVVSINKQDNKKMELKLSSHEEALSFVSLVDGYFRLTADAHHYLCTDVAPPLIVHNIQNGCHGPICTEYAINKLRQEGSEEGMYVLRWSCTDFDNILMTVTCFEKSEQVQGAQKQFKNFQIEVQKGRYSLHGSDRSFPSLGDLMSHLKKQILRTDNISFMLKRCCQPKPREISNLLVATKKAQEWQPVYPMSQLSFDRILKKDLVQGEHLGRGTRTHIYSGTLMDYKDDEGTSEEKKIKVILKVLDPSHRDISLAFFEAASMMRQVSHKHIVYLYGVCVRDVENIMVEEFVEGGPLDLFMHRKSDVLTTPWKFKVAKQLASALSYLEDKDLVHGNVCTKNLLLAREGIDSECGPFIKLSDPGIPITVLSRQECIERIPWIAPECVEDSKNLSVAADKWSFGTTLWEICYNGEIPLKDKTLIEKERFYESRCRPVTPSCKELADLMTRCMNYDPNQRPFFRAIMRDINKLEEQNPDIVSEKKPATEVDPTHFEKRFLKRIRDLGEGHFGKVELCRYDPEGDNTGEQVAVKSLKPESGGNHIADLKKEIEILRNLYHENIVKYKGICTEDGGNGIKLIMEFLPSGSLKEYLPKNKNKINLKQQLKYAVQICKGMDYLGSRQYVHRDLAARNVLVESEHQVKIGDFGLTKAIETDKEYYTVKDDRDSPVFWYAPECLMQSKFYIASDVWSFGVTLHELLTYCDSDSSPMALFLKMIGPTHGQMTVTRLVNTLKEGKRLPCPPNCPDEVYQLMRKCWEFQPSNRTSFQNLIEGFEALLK
# JAK3 (a.a. 781-1124), sequence (P52333 781-1124): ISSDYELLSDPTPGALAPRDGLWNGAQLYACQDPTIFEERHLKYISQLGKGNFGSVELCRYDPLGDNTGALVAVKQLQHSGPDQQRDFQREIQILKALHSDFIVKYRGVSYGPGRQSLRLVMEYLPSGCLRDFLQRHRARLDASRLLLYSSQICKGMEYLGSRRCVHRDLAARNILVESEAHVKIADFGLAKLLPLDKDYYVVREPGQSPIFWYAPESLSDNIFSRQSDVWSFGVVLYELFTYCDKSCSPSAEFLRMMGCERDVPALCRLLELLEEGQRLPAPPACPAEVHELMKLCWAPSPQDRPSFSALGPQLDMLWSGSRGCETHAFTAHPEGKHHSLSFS
# Tyk-2, sequence (P29597 whole entry): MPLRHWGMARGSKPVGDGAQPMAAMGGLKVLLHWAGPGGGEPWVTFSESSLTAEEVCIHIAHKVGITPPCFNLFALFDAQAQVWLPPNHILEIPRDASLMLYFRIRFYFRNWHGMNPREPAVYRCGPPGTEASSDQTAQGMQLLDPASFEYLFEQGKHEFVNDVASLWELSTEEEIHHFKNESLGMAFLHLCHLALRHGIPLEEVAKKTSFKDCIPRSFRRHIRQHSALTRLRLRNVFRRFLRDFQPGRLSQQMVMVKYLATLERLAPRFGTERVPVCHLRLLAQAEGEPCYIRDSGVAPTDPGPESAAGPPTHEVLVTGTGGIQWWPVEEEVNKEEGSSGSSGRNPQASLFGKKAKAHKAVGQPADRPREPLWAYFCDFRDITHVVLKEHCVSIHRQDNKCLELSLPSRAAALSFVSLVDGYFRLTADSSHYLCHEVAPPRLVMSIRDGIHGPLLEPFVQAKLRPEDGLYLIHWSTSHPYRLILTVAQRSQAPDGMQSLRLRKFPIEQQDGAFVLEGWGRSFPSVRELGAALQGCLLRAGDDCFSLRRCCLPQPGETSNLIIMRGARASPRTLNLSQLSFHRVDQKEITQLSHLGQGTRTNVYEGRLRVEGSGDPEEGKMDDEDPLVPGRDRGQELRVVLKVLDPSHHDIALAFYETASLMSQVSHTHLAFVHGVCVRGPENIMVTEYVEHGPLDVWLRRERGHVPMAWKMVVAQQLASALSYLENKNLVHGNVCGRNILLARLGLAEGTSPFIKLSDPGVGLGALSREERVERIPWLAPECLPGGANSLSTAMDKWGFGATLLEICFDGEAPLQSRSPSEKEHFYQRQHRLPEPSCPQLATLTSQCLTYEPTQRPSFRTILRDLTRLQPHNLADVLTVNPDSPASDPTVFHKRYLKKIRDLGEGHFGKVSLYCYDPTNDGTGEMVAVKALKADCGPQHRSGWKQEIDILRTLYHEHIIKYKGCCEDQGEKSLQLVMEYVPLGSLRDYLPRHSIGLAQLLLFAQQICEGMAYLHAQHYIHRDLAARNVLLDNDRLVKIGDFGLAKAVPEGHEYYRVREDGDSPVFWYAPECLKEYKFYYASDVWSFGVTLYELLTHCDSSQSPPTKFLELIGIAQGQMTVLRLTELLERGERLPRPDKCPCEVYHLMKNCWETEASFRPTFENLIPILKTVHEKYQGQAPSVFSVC
# JAK2, sequence (O60674 whole entry): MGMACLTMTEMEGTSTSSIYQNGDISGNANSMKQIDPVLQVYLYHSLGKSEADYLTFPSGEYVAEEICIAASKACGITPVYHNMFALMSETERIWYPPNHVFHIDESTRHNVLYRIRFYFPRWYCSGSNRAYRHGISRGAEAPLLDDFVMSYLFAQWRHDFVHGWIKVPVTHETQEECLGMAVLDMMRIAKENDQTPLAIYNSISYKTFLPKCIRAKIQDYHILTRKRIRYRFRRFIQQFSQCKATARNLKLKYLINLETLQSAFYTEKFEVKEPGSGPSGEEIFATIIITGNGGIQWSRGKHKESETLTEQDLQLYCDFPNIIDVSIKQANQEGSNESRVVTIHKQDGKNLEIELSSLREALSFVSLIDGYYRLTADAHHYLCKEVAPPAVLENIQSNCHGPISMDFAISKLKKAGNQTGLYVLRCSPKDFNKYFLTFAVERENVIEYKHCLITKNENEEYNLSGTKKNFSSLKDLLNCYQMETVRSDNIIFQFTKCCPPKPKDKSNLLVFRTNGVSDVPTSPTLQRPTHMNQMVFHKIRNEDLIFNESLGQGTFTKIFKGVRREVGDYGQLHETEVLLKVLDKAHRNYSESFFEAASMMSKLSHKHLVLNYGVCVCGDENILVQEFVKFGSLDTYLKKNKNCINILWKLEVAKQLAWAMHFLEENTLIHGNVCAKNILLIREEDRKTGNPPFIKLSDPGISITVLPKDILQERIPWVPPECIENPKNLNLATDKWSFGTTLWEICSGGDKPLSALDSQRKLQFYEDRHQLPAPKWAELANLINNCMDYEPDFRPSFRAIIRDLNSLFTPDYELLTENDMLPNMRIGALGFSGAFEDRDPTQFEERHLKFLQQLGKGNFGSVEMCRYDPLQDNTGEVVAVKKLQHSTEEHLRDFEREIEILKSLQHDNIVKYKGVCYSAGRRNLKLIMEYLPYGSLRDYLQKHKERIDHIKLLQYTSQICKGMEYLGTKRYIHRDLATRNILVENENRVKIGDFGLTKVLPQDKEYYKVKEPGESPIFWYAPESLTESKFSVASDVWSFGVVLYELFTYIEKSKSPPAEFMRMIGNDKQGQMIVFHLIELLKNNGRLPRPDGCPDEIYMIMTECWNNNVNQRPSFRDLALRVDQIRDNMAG
smiles,measurement,setting,value
"C[C@@H]1C[C@H](Nc2c(-c3ncco3)cnc3[nH]ccc23)CN(C(=O)CC#N)C1 (single isomer, unassigned) [Example 9]",IC50,[1],100 to 1000 nM
same,IC50,[2],> 1000 nM
same,IC50,[3],10 to 100 nM
same,IC50,[4],100 to 1000 nM
same,IC50,[5],100 to 1000 nM
"N#CCC(=O)N1CCC[C@@H](Nc2c(-c3cscn3)cnc3[nH]ccc23)C1 [Example 1, (R)-3-oxo-3-(3-((5-(thiazol-4-yl)-1H-pyrrolo[2,3-b]pyridin-4-yl)amino)piperidin-1-yl)propanenitrile]",IC50,[1],10 to 100 nM
same,IC50,[2],100 to 1000 nM
same,IC50,[3],10 to 100 nM
same,IC50,[6],100 to 1000 nM
same,IC50,[4],10 to 100 nM
same,IC50,[5],10 to 100 nM
"Cc1ncc(-c2cnc3[nH]ccc3c2N[C@@H]2CCCN(C(=O)CC#N)C2)s1 [Example 3, (R)-3-(3-((5-(2-methylthiazol-5-yl)-1H-pyrrolo[2,3-b]pyridin-4-yl)amino)piperidin-1-yl)-3-oxopropanenitrile]",IC50,[1],100 to 1000 nM
same,IC50,[2],100 to 1000 nM
same,IC50,[3],10 to 100 nM
same,IC50,[6],> 1000 nM
same,IC50,[4],10 to 100 nM
same,IC50,[5],100 to 1000 nM
"N#CCC(=O)N1CCC[C@@H](Nc2c(-c3nncs3)cnc3[nH]ccc23)C1 [Example 8, (R)-3-(3-((5-(1,3,4-thiadiazol-2-yl)-1H-pyrrolo[2,3-b]pyridin-4-yl)amino)piperidin-1-yl)-3-oxopropanenitrile]",IC50,[4],≤ 10 nM
"N#CCC(=O)N1CCC[C@@H](Nc2c(-c3nnc[nH]3)cnc3[nH]ccc23)C1 [Example 11, (R)-3-(3-((5-(4H-1,2,4-triazol-3-yl)-1H-pyrrolo[2,3-b]pyridin-4-yl)amino)piperidin-1-yl)-3-oxopropanenitrile]",IC50,[1],100 to 1000 nM
same,IC50,[2],> 1000 nM
same,IC50,[3],10 to 100 nM
same,IC50,[6],> 1000 nM
same,IC50,[4],10 to 100 nM
same,IC50,[5],10 to 100 nM
"Cn1ccnc1-c1cnc2[nH]ccc2c1N[C@@H]1CCCN(C(=O)CC#N)C1 [Example 17, (R)-3-(3-((5-(1-methyl-1H-imidazol-2-yl)-1H-pyrrolo[2,3-b]pyridin-4-yl)amino)piperidin-1-yl)-3-oxopropanenitrile]",IC50,[1],> 1000 nM
same,IC50,[2],> 1000 nM
same,IC50,[3],> 1000 nM
same,IC50,[4],> 1000 nM
same,IC50,[5],> 1000 nM
"N#CCC(=O)N1CCC[C@@H](Nc2c(-c3ccncn3)cnc3[nH]ccc23)C1 [Example 24, (R)-3-oxo-3-(3-((5-(pyrimidin-4-yl)-1H-pyrrolo[2,3-b]pyridin-4-yl)amino)piperidin-1-yl)propanenitrile]",IC50,[1],≤ 10 nM
same,IC50,[3],≤ 10 nM
same,IC50,[4],≤ 10 nM
"CNC(=O)c1coc(-c2cnc3[nH]ccc3c2N[C@H]2C[C@@H](C)CN(C(=O)CC#N)C2)n1 [Example 32, 2-(4-(((3S,5R)-1-(2-cyanoacetyl)-5-methylpiperidin-3-yl)amino)-1H-pyrrolo[2,3-b]pyridin-5-yl)-N-methyloxazole-4-carboxamide]",IC50,[1],100 to 1000 nM
same,IC50,[2],> 1000 nM
same,IC50,[3],10 to 100 nM
same,IC50,[4],100 to 1000 nM
same,IC50,[5],100 to 1000 nM
"CN(C(=O)CC#N)C1CCN(c2nccc(-c3cnc4[nH]ccc4c3N[C@@H]3CCCN(C(=O)CC#N)C3)n2)C1 (stereo partly drawn) [Example 50, 2-cyano-N-(1-(4-(4-(((R)-1-(2-cyanoacetyl)piperidin-3-yl)amino)-1H-pyrrolo[2,3-b]pyridin-5-yl)pyrimidin-2-yl)pyrrolidin-3-yl)-N-methylacetamide]",IC50,[1],10 to 100 nM
same,IC50,[2],> 1000 nM
same,IC50,[3],≤ 10 nM
same,IC50,[4],≤ 10 nM
same,IC50,[5],10 to 100 nM
"CN(C)S(=O)(=O)Nc1ccnc(-c2cnc3[nH]ccc3c2N[C@@H]2CCCN(C(=O)CC#N)C2)c1 [Example 54, (R)-N-(2-(4-((1-(2-cyanoacetyl)piperidin-3-yl)amino)-1H-pyrrolo[2,3-b]pyridin-5-yl)pyridin-4-yl)N,N-dimethyl sulfuric diamide]",IC50,[1],100 to 1000 nM
same,IC50,[2],> 1000 nM
same,IC50,[3],100 to 1000 nM
same,IC50,[4],10 to 100 nM
same,IC50,[5],10 to 100 nM
"CS(=O)(=O)Nc1ccnc(-c2cnc3[nH]ccc3c2N[C@@H]2CCCN(C(=O)CC#N)C2)c1 [Example 56, (R)-N-(2-(4-((1-(2-cyanoacetyl)piperidin-3-yl)amino)-1H-pyrrolo[2,3-b]pyridin-5-yl)pyridin-4-yl)methanesulfonamide]",IC50,[1],100 to 1000 nM
same,IC50,[2],> 1000 nM
same,IC50,[3],100 to 1000 nM
same,IC50,[4],10 to 100 nM
same,IC50,[5],100 to 1000 nM
"C[C@@H]1C[C@H](Nc2c(-c3ccncn3)cnc3[nH]ccc23)CN(C(=O)CC#N)C1 [Example 57, 3-((3R,5S)-3-methyl-5-((5-(pyrimidin-4-yl)-1H-pyrrolo[2,3-b]pyridin-4-yl)amino)piperidin-1-yl)-3-oxopropanenitrile]",IC50,[1],100 to 1000 nM
same,IC50,[2],> 1000 nM
same,IC50,[3],10 to 100 nM
same,IC50,[4],100 to 1000 nM
same,IC50,[5],100 to 1000 nM
Cc1ccnc(-c2cnc3[nH]ccc3c2N[C@@H]2CCCN(C(=O)CC#N)C2)n1 [Example 60],IC50,[1],10 to 100 nM
same,IC50,[4],≤ 10 nM
"CNC(=O)c1ccnc(-c2cnc3[nH]ccc3c2N[C@@H]2CCCN(C(=O)CC#N)C2)c1 [Example 61, (R)-2-(4-((1-(2-cyanoacetyl)piperidin-3-yl)amino)-1H-pyrrolo[2,3-b]pyridin-5-yl)-N-methylisonicotinamide]",IC50,[1],100 to 1000 nM
same,IC50,[2],> 1000 nM
same,IC50,[3],10 to 100 nM
same,IC50,[4],10 to 100 nM
same,IC50,[5],10 to 100 nM
